A short description of the series: Coating thickness by optical profilometry. The series is classed as physicochemical. The note with it: submersion coating on PVC-coated glass slide. The procedure: For surface topology studies, PVC powder was purchased and dissolved in 3:2 cyclopentanone:tetrahydrofuran at a concentration of 10 mg/mL. PVC solution (50 μL) was used to spin-coat 1 cm diameter glass slides for 1 minute at 3,000 RPM. The PVC-coated slides were allowed to dry for 24 hours prior to submersion coating in 2 mL AMPA solutions. Coated products were removed from submersion and dried in 24-well plates under aseptic conditions for at least 24 hours prior to characterization. The coating was assessed via contact angle to evaluate surface hydrophilicity and optical profilometry to measure coating thickness. […] Electron microscopy of the AMPA coatings has shown no presence of micelles.

SMILES strings stand for the structures. Where a SMILES comes first, the peptide text is derived from it. Bridges are numbered along the chain shown (N, C = ends). [ ]: non-standard residue; d: D form. The star is where a group is joined. d2Nal = N[C@H](Cc1ccc2ccccc2c1)C(=O)O; Palmitoyl = CCCCCCCCCCCCCCCC(=O)*

As to `CCCCCCCCCCCCCCCC(=O)NCCCC[C@H](NC(=O)[C@H]1CCCN1C(=O)[C@H](NC(=O)[C@@H]1CCCCNC(=O)C[C@H](NC(=O)[C@@H](NC(=O)[C@H](CCCNC(=N)N)NC(=O)[C@@H](NC(=O)[C@H](CCCNC(=N)N)NC(=O)[C@@H](NC(=O)[C@H](CCCNC(=N)N)NC(=O)[C@@H](N)Cc2ccccc2)[C@@H](C)CC)C(C)C)C(C)C)C(=O)N[C@@H](CCCNC(=N)N)C(=O)N[C@@H](CCCNC(=N)N)C(=O)N[C@H](Cc2ccc3ccccc3c2)C(=O)N[C@@H](Cc2ccccc2)C(=O)N[C@@H](Cc2c[nH]c3ccccc23)C(=O)N[C@@H](CCCNC(=N)N)C(=O)N1)C(C)C)C(N)=O` [AB01-KPalm, FRIRVRV[DRR-dNal(2′)-FWRK]dV-Dp [SEQ. ID. NO. 1]-K(Palm)] (H-FRIRVRVDRR[d2Nal]FWRK[dV][dP]K(Palmitoyl)-NH2; lactam 8-15; N-terminus and C-terminus assumed), the coating thickness entry was “approximately 30 nm”.

Source of the values: patent publication US20180194967A1, “ANTIMICROBIAL PEPTIDE AMPHIPHILE COATINGS” (priority 2017, published 2018).
